Laboratory results as given in paper PMC12657321, “Pre-clinical evaluation of a potent and effective Pin1-degrading agent in pancreatic cancer” (Molecular Therapy Oncology, 2025).
Non-standard residues stand in square brackets, D forms with d. Residues, ends and D or L forms follow the SMILES beside them. *: point of attachment. Trp(6-Cl) = N[C@@H](Cc1c[nH]c2cc(Cl)ccc12)C(=O)O; Pip = O=C(O)[C@@H]1CCCCN1; ClAc = O=C(CCl)*

Key:
[1] = Stability in plasma from Black 6-Cg mice; type: in vitro ADME; settings: Black 6-Cg (B6-Cg), mouse, 37°C, up to 6 h, acetonitrile quench, LC-MS/MS
Protocol: A solution of a Pin1 inhibitor was spiked into blank plasma at 1 μg/mL in various solutions, including an aqueous buffer (1× phosphate-buffered saline; Fisher Scientific, Fair Lawn, NJ), human plasma (Innovative Research Inc., Novi, MI), wild-type mouse plasma (Innovative Research Inc., Novi, MI), plasma form esterase-deficient mice (City of Hope, Duarte, CA), and plasma from Black 6-Cg mice (City of Hope, Duarte, CA).
The spiked plasma samples were incubated at 37°C for up to 6 h. At each designated time point, a 20 μL aliquot of the incubation sample was removed and quenched in 100 μL of acetonitrile. At the end of the incubation, the quenched samples were vortexed and centrifuged for 10 min at 4°C and 20,000 × g. The resulting supernatant was reconstituted and analyzed by LC-MS/MS.
Table S2. Stability half-life of agents reported in Table 1 after incubation at 37 °C in various media. Acq represents aqueous buffer composed of 1x phosphate buffered saline (Fisher Scientific, Fair Lawn, NJ); human represents human plasma (Innovative Research Inc., Novi, MI); mouse wt represents wild type mouse plasma (Innovative Research Inc., Novi, MI); mouse ES1e represents plasma form esterase deficient mice (City of Hope, Duarte, CA); mouse B6-Cg represents plasma from black 6-Cg mice (City of Hope, Duarte, CA). See Figure 1 for the chemical structures of these compounds.
Compound Acq Human Mouse Mouse ES1e Mouse

[2] = biological target: Pin1 in BxPC3 cells (Homo sapiens, UniProt Q13526); assay: Pin1 recovery after degradation, capillary electrophoresis immunoassay, BxPC3; type: cell-based; set-up: endogenous in cells; host or cells: BxPC3; settings: BxPC3, 5 μM for 24 h, washed, serum-free media, 48 h after wash; two independent replicates
Pin1 in BxPC3 cells, sequence (Q13526 whole entry): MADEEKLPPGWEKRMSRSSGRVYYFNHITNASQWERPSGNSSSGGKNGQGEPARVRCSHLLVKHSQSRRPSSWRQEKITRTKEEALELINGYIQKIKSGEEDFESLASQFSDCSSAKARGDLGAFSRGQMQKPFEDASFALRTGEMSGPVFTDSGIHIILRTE
Protocol: To preliminarily assess the duration of Pin1 degradation in cancer cells, BxPC3 and KPC cells were treated with 164B8 for 24 h, washed, and then incubated in serum-free medium for various time points. Pin1 levels were then measured by capillary electrophoresis (Figure 3).
Figure 3 Western blot-like images of Pin1 recovery after degradation by 164B8 using capillary electrophoresis immunoassay (A) BxPC3 cells were pretreated with either 0.1% DMSO or 5 μM 164B8 for 24 h before washing and incubating in serum-free media to evaluate Pin1 recovery at 0, 6, 12, 24, and 48 h. (B) The experiment was performed in two independent replicates, and the results are plotted with the associated standard deviation. (C and D), as in (A) and (B), respectively, but testing the agents against the KPC cell line.
For capillary electrophoresis immunoassays (Figure 3), following protein quantification via the bicinchoninic acid (BCA) assay, the Jess Simple Western instrument (Protein Simple, Bio-Techne, Minneapolis, MN, USA) was utilized according to the manufacturer’s protocol for the 12–230 kDa separation module (SM-W001, Bio-Techne). […] The resulting data were analyzed using Compass for Simple Western software (v.6.3.0), utilizing the default high dynamic range 4.0 image settings and Gaussian peak fitting to obtain the area under each curve for quantification and analysis.

[3] = biological target: T1, human Pin1 (Homo sapiens, UniProt Q13526); assay: DELFIA displacement assay (biotinylated D-peptide / His-tagged Pin1); type: binding; settings: DELFIA displacement of biotinylated D-peptide from His-tagged Pin1; compound incubation 6 h; ± standard error of duplicate measurements
T1 construct: Residues 1–163 of human Pin1 were expressed with a thrombin cleavage site and a HisTag at the N-terminus; 6xHis (N); thrombin cleavage site (N); made in house; host or cells: E. coli
T1 sequence (Q13526 whole entry, the tested form may be a part): as the sequence (Q13526 whole entry) above
Protocol: To assess the ability of our agents to bind and inhibit Pin1, we developed a robust biochemical assay based on the dissociation-enhanced lanthanide fluorescent immunoassay (DELFIA) platform. In our implementation, we used a biotinylated form of a known Pin1-binding peptide (D-peptide) to monitor the ability of test agents to inhibit the interaction between Pin1 and the D-peptide at various incubation times, as described previously.[32] […] In addition, as mentioned above and reported recently, we tested the ability of the agents to reduce Pin1 thermal stability in vitro by thermal denaturation measurements.[32] […] Pin1 unfolding causes a nonspecific interaction between the water-quenched fluorescent dye and the protein’s exposed hydrophobic residues, resulting in increased fluorescence. A shift in the thermal denaturation temperature between the free and bound protein is interpreted as a stabilization or destabilization event induced by the test ligand. […] To further assess whether these agents could be suitable for in vivo efficacy studies, we also performed stability assays in aqueous buffer and in plasma from various species (Table S2, Figure S2). We tested the stability of our agents in plasma from multiple mouse strains as well as in human plasma (Figure S2), given the peptide nature of the compounds. […]

## CNC(=O)[C@H](Cc1c[nH]c2ccccc12)NC(=O)[C@@H]1CCCCN1C(=O)[C@H](Cc1c[nH]c2cc(Cl)ccc12)NC(=O)CCl [164B8] (ClAc-[Trp(6-Cl)]-[Pip]-Trp-NHMe)
[1]
  half-life at 1 μg/mL: > 5 h
[2]
  Pin1 levels restored after exposure and wash-out: approximately 50%
[3]
  IC50: 4.65 ± 0.04 nM
